Data taken from PMC9207808 (ACS Chemical Biology, 2022).
“Also recorded” adds a separate entry of the source. Residues, ends and D or L forms follow the SMILES beside them.

Experiments:
[1] = test system: DocSTm; assay: Differential scanning fluorimetry (thermal stabilisation of Doc); format: binding, S. Typhimurium; conditions: for melting temperature shift ΔTm: DSF, DocSTm 5 μM, analyte 50 μM, Tm with analyte minus Tm of free DocSTm (42.9 ± 0.9 °C), SYPRO Orange, 20 mM K2HPO4, 50 mM (NH4)2SO4, pH 8.0, triplicate; for Average Tm: average of 3 replicates
How it was run: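 Thermal shift of 5 μM Doc in 20 mM K2HPO4, 50 mM (NH4)2SO4, pH 8.0 with 3× SYPRO Orange, heated from 25 to 95 °C in a qPCR instrument, in triplicate. Melting temperatures from Boltzmann sigmoid fits of the transition region.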

[2] = test system: DocSTm; assay: Surface plasmon resonance binding to immobilised Doc; design: species or system S. Typhimurium; conditions: for fold decrease in affinity (given as decrease/loss in Kd) compared with peptide 1: SPR Kd relative to wild-type peptide 1; for koff × 10^-6 / kon × 10^6: 1:1 kinetic fit, mean ± SD of at least 3 replicates; for kon × 10^6: single-cycle kinetics (multicycle for PhdSTm1-73); for Half-life of the complex: t1/2 = ln2 / koff
How it was run: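 Doc captured on an NTA chip at 22 °C in 10 mM HEPES, 500 mM NaCl, 50 μM EDTA, 0.005% TWEEN 20, pH 8.0. Analytes injected as 80 s pulses at 30 μL/min in multicycle or single-cycle kinetics.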

[3] = test system: S. Typhimurium (14028) Δphd-doc::Km strains coexpressing DocSTm; assay: Growth rescue experiment in S. Typhimurium; format: cell-based; conditions: coexpression of DocSTm (pBAD33, arabinose) and Phd construct (pCA24N, basal expression); OD600 over time, M9 minimal medium; average of three independent experiments
Description: The cotransformations above were also performed with an empty pBAD33 plasmid, as a control for the absence of DocSTm expression.
For the growth rescue experiment, overnight (1% tryptone, 0.5% yeast extract, 0.5% NaCl, 1% glucose, 100 μg/mL of carbenicillin, and 34 μg/mL of chloramphenicol) cultures of the generated S. Typhimurium strains were diluted to an OD600 of approximately 0.006 into fresh M9 minimal medium supplemented with 0.5% or 1% arabinose, 0.4% glycerol, 0.4% casamino acids, 100 μg/mL of carbenicillin, and 34 μg/mL of chloramphenicol. Cell growth at a given time was monitored at OD600 with a Genesys 140 Visible Spectrophotometer (Thermo Scientific).

[4] = test system: DocSTm; assay: Dot blot phosphorylation assay (EF-Tu phosphorylation by Doc); format: biochemical, S. Typhimurium; conditions: α-pThr, DocSTm 1 μM, EF-TuSTm 3 μM, ATP 1 mM, inhibitor 10 μM to 5 nM (3-fold dilutions), 16 h at RT
Description: Samples were prepared to a final volume of 10 μL. […] Samples were incubated for 16 h at RT and subsequently spotted on a nitrocellulose membrane. Phosphorylated EF-Tu was detected by immunodecoration using a rabbit monoclonal antiphosphothreonine antibody (Abcam, ab218195) at 1:2000 dilution (1 h at 4 °C), followed by incubation with a goat antirabbit IgG (H+L) HRP conjugate antibody (Advansta) at 1:10 000 dilution (1 h at RT). Chemiluminescence was developed using the HRP Luminata kit (Merck, WBLUR0100) and captured by an ImageQuant LAS4000 Western blot imaging system (Cytiva).

[5] = DocSTm 5 µM + 50 µM binder, replicate 1
[6] = DocSTm 5 µM + 50 µM binder, replicate 2
[7] = DocSTm 5 µM + 50 µM binder, replicate 3
[8] = SPR multicycle, steady-state fit, replicate 1
[9] = SPR multicycle, steady-state fit, replicate 2
[10] = SPR multicycle, steady-state fit, replicate 3
[11] = SPR, multicycle kinetics, steady-state 1:1 fit, mean ± SD of 3 replicates
[12] = SPR, kinetic fit, KD calculated from mean koff and kon, SD propagated, 22 °C, pH 8.0

Molecule	melting temperature shift ΔTm [1] [°C]	Average Tm ([1]; DocSTm 5 µM + 50 µM binder) [°C]	Tm [1, 5] [°C]	Tm [1, 6] [°C]	Tm [1, 7] [°C]	fold decrease in affinity (given as decrease/loss in Kd) compared with peptide 1 [2]	Kd [2, 8] [nM]	Kd [2, 9] [nM]	Kd [2, 10] [nM]	Kd [2, 11] [nM]	rescue of Salmonella growth from DocSTm-induced growth inhibition (in words) [3]	Kd ([2]; SPR kinetic fit, replicate 1) [nM]	Kd ([2]; SPR kinetic fit, replicate 2) [nM]	Kd ([2]; SPR kinetic fit, replicate 3) [nM]	koff × 10^-6 ([2]; SPR, 22 °C, pH 8.0)	kon × 10^6 ([2]; SPR, 22 °C, pH 8.0)	Kd [2, 12] [nM]	Half-life of the complex [2] [min]	inhibition of EF-TuSTm phosphorylation by DocSTm (in words) [4]	further results
CSCC[C@H](NC(=O)[C@H](C)NC(=O)[C@H](C)NC(=O)[C@H](C)NC(=O)[C@H](Cc1ccccc1)NC(=O)[C@H](CCC(=O)O)NC(=O)[C@H](CC(=O)O)NC(=O)[C@H](CC(=O)O)NC(=O)[C@H](CCSC)NC(=O)[C@H](Cc1c[nH]c2ccccc12)NC(C)=O)C(=O)N[C@@H](C)C(=O)N[C@H](C(=O)N[C@@H](Cc1c[nH]cn1)C(=O)NCC(=O)N[C@@H](CC(N)=O)C(=O)N[C@@H](CCC(=O)O)C(=O)N[C@@H](CC(C)C)C(=O)N[C@@H](CCCNC(=N)N)C(=O)N[C@@H](CCC(=O)O)C(=O)N[C@@H](CC(C)C)C(=O)N[C@@H](C)C(=O)N[C@@H](CC(=O)O)C(=O)N[C@@H](CCCCN)C(=O)O)C(C)C [peptide 7] (Ac-WMDDEFAAAMAVHGNELRELADK-OH; C-terminus assumed)	15.5 ± 1.5	58.4 ± 1.2	59.7	57.7	57.6	~300 fold	25.4 ± 3	19.4 ± 2.2	15.1 ± 0.09	19.9 ± 5.18	unable to rescue growth	–	–	–	–	–	–	–	–	–
CC[C@H](C)[C@H](NC(=O)[C@H](C)NC(=O)[C@H](C)NC(=O)[C@H](Cc1ccccc1)NC(=O)[C@H](CCC(=O)O)NC(=O)[C@H](CC(=O)O)NC(=O)[C@H](CC(=O)O)NC(=O)[C@H](CCSC)NC(=O)[C@H](Cc1c[nH]c2ccccc12)NC(C)=O)C(=O)N[C@@H](C)C(=O)N[C@@H](C)C(=O)N[C@H](C(=O)N[C@@H](Cc1c[nH]cn1)C(=O)NCC(=O)N[C@@H](CC(N)=O)C(=O)N[C@@H](CCC(=O)O)C(=O)N[C@@H](CC(C)C)C(=O)N[C@@H](CCCNC(=N)N)C(=O)N[C@@H](CCC(=O)O)C(=O)N[C@@H](CC(C)C)C(=O)N[C@@H](C)C(=O)N[C@@H](CC(=O)O)C(=O)N[C@@H](CCCCN)C(=O)O)C(C)C [peptide 8] (Ac-WMDDEFAAIAAVHGNELRELADK-OH; C-terminus assumed)	20.8 ± 1.0	63.7 ± 0.4	64.1	63.3	63.7	8- to 30 fold	–	–	–	–	fully rescued Salmonella growth after 18 h of culture	0.67	0.611	0.485	1223 ± 504 ×10^-6 s-1	2.221 ± 1.307 ×10^6 M-1 s-1	0.553 ± 0.397	9.6 ± 36	–	–
CC[C@H](C)[C@H](NC(=O)[C@H](C)NC(=O)[C@H](C)NC(=O)[C@H](Cc1ccccc1)NC(=O)[C@H](CCC(=O)O)NC(=O)[C@H](CC(=O)O)NC(=O)[C@H](CC(=O)O)NC(=O)[C@H](CCSC)NC(=O)[C@H](Cc1c[nH]c2ccccc12)NC(C)=O)C(=O)N[C@@H](CCSC)C(=O)N[C@@H](C)C(=O)N[C@H](C(=O)N[C@@H](C)C(=O)NCC(=O)N[C@@H](CC(N)=O)C(=O)N[C@@H](CCC(=O)O)C(=O)N[C@@H](CC(C)C)C(=O)N[C@@H](CCCNC(=N)N)C(=O)N[C@@H](CCC(=O)O)C(=O)N[C@@H](CC(C)C)C(=O)N[C@@H](C)C(=O)N[C@@H](CC(=O)O)C(=O)N[C@@H](CCCCN)C(=O)O)C(C)C [peptide 10] (Ac-WMDDEFAAIMAVAGNELRELADK-OH; C-terminus assumed)	20.9 ± 1.0	63.7 ± 0.4	63.3	63.7	64.2	~300 fold	12.2 ± 1.8	13.1 ± 1.4	40 ± 2.87	21.8 ± 15.8	provided only a partial rescue	–	–	–	–	–	–	–	–	–
CC[C@H](C)[C@H](NC(=O)[C@H](C)NC(=O)[C@H](C)NC(=O)[C@H](Cc1ccccc1)NC(=O)[C@H](Cc1c[nH]c2ccccc12)NC(C)=O)C(=O)N[C@@H](CCSC)C(=O)N[C@@H](C)C(=O)N[C@H](C(=O)N[C@@H](Cc1c[nH]cn1)C(=O)NCC(=O)N[C@@H](CC(N)=O)C(=O)N[C@@H](CCC(=O)O)C(=O)N[C@@H](CC(C)C)C(=O)N[C@@H](CCCNC(=N)N)C(=O)N[C@@H](CCC(=O)O)C(=O)N[C@@H](CC(C)C)C(=O)O)C(C)C [peptide 23] (Ac-WFAAIMAVHGNELREL-OH; N-terminus and C-terminus assumed)	7.9 ± 1.0	50.7 ± 0.3	50.54	50.60	51.08	30 fold	–	–	–	–	–	1.85	1.94	2.18	2794 ± 42 ×10^-6 s-1	1.413 ± 0.136 ×10^6 M-1 s-1	1.98 ± 0.193	4.14 ± 0.06	inactive in all concentrations tested; also recorded: poor DocSTm inhibitors	–
Ac-WNELRELADK-OH [compound 25]	1.3 ± 0.9	44.2 ± 0.1	44.1	44.2	44.4	–	–	–	–	–	–	–	–	–	–	–	–	–	inactive	Average Tm ([1]; DocSTm 5 µM + 100 µM peptide): 43.3 ± 0.1 °C; Tm ([1]; DocSTm 5 µM + 100 µM peptide, replicate 1): 43.2 °C; Tm ([1]; DocSTm 5 µM + 100 µM peptide, replicate 2): 43.2 °C; Tm ([1]; DocSTm 5 µM + 100 µM peptide, replicate 3): 43.4 °C; binding to DocSTm by SPR (in words) ([2]; SPR): Affinity was too weak to be determined by SPR; also recorded: no measurable affinities could be obtained by SPR
